Reference: patent US20100094026A1, “METHOD OF SCREENING COMPOUND USEFUL IN TREATING ALLERGIC DISEASE” (REVERSE PROTEOMICS RESEARCH INSTITUTE CO., LTD., priority 2005, published 2010)
Structures can show the parent of a compound that is named as a salt.

Target: T1, Standard Human Vimentin (Homo sapiens, UniProt P08670)
T1 construct: purchased PROGEN Biotechnik 62015
Experiment: Measurement of Kd value between Vimentin and Intal with Biacore (SPR)
Assay type: binding
Conditions: SPR on Biacore3000; Intal PEG amine immobilized on CM5 chip; Vimentin 0.29 nM to 4.6 μM infused for 5 min
Experimental: Intal PEG amine synthesized as above was immobilized to Biacore CM5 chip (#BR-1000-14), according to a method described in BIAapplications Handbook (published by Biacore).
Control data was obtained by using a chip to which 2-ethanolamine was immobilized by the same way.
As Vimentin, Standard Human Vimentin (cat. No. 62015) purchased from PROGEN Biotechnik was subjected to buffer exchange by Running buffer(0.25 M Sucrose, 25 mM Tris-HCl pH7.5, 0.3 mM sodium N,N-diethyldithiocarbamate, 25 mM urea, 1 mM calcium chloride) and used to measure Kd.
The measurement of Kd was performed by SPR (surface plasmon resonance) spectrum measurement on Biacore3000 (Biacore). The above-mentioned Running buffer was run through the Intal-immobilized CM5 chip prepared by the above-mentioned procedure at 20 μl per min. Thereto, each sample which was prepared by gradually diluting the Vimentin prepared by the above-mentioned procedure (0.29 nM to 4.6 μM) was infused for 5 min., and the obtained SPR spectrum was analyzed by BIAevaluation software Ver.

T1 sequence (P08670 whole entry): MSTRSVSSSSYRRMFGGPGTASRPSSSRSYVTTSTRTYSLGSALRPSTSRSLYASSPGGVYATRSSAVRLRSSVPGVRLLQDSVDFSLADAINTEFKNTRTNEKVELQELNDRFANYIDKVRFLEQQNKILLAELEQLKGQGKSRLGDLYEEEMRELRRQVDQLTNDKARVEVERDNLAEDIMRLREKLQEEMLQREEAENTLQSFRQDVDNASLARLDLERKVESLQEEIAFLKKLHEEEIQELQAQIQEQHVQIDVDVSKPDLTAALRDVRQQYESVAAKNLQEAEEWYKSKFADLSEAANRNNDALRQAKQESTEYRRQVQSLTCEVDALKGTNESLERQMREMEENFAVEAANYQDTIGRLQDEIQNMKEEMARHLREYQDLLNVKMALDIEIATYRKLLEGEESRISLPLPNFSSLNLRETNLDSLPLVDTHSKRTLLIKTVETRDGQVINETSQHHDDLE

O=C(O)c1cc(=O)c2c(OCC(O)COc3cccc4oc(C(=O)O)cc(=O)c34)cccc2o1 [Intal, disodium salt of 1,3-bis(2-carboxychromon-5-yloxy)-2-hydroxypropane]
Kd: 56 nM
